Reference: publication PMC2778948, “A Novel Enediynyl Peptide Inhibitor of Furin That Blocks Processing of proPDGF-A, B and proVEGF-C” (PLoS ONE, 2009)
Several values for one entry are separate records, joined by “and”; a condition that tells them apart may be missing. Identical values can stand only once. Like-named read-outs stand apart in the source and are kept apart here.

Tests used:
[1] = molecular target: T1, recombinant h (human) furin (Homo sapiens, UniProt P09958); experiment: In vitro furin assay with Boc-RVRR-MCA (50 µM), aromatic enediyne compounds; format: biochemical; settings: for inhibition at 100 µM: read-out: Furin inhibition at a single concentration
T1 construct: pure soluble recombinant h (human) furin; purchased New England Biolabs
Text: (§1) Most aromatic enediyne compounds are chemically highly reactive and can easily generate upon heating reactive bis-radical species via Bergman cyclo-aromatization reaction, [32]. It is a possibility that these reactive intermediates may then react with one or more of the catalytic amino acid residues His, Ser or Asp of PC-enzymes leading to chemical modifications of latter. This notion is supported by several studies involving interactions of amino acids either free or within protein sequences [41]–[46]. Based on this rationale we proposed that such types of molecules may therefore inhibit the protease activities of these enzymes. To test this hypothesis, we first synthesized several aromatic enediyne derivatives and examined in vitro their effects on proteolytic activities of three key members of PC-family enzymes namely furin, PC5 and PC7. In vitro enzyme assay of PCs against Boc-RVRR-MCA substrate (50 µM), in the absence and presence of various synthetic aromatic enediyne compounds (Fig. 1) indicated weak to modest inhibitory activities of these compounds. […] This is the first report of PC-inhibitory activity of an enediyne compound. This finding prompted us to the idea of incorporating an enediyne function within a peptide sequence which may enhance the potency and selectivity of furin inhibition. To accomplish this, we designed and synthesized an enediynyl amino acid (Eda) derivative with its amino terminal protected by Fmoc (9H-fluoren-9-ylmethoxy carbonyl) group so that it can be directly used in solid phase peptide synthesis.
Figure 1 List of synthetic aromatic enediyne derivatives and their effects on protease activities of Proprotein Convertases Furin, PC5 and PC7. […] The enzyme assay was carried out by using the fluorogenic peptide substrate Boc-RVRR-MCA (50 µM final concentration) as described in [27]. ND = not determined. TEXT PRINTED IN THE PICTURE: AB-1: MW 438; Furin: 29.9 ± 1.5; PC5: 33% (57 mM); PC7: 30.4 ± 3.5 | AB-2: MW 390; Furin: 10.5 ± 1.8; PC5: 34.5 ± 5.8; PC7: 8.5 ± 1.8 | AB-3: MW 506; Furin: 14.2 ± 1.8; PC5: 17.2± 3.4 | AB-4: MW 258; Furin: 10% at 100 μM | AB-5: MW 259; Furin: 12% at 100 μM | AB-6: MW 780; Furin: 192 ± 6.7 | AB-6-Ni: MW 838; Furin: 160 ± 2.5
While pure soluble recombinant h (human) furin was obtained commercially from New England Biolabs (Boston, Ma, USA), recombinant m (mouse) PC5 and soluble hPC7 were obtained in partially purified form as described earlier.

[2] = molecular target: T2, recombinant m (mouse) PC5 (Mus musculus, UniProt Q04592); experiment: In vitro PC5 assay with Boc-RVRR-MCA (50 µM), aromatic enediyne compounds; format: biochemical
T2 construct: made in house
Text: as §1, with “This finding prompted us to the idea of incorporating an enediyne function within a peptide sequence which may enhance the potency and selectivity of furin inhibition. To accomplish this, we designed and synthesized an enediynyl amino acid (Eda) derivative with its amino terminal protected by Fmoc (9H-fluoren-9-ylmethoxy carbonyl) group so that it can be directly used in solid phase peptide synthesis.” left out
(§2) Figure 1 List of synthetic aromatic enediyne derivatives and their effects on protease activities of Proprotein Convertases Furin, PC5 and PC7. […] ND = not determined. […]

[3] = molecular target: T3, soluble hPC7 (Homo sapiens, UniProt Q16549); experiment: In vitro PC7 assay with Boc-RVRR-MCA (50 µM), aromatic enediyne compounds; format: biochemical
T3 construct: soluble hPC7 were obtained in partially purified form; made in house
T3 sequence (Q16549 142-667 limits assumed): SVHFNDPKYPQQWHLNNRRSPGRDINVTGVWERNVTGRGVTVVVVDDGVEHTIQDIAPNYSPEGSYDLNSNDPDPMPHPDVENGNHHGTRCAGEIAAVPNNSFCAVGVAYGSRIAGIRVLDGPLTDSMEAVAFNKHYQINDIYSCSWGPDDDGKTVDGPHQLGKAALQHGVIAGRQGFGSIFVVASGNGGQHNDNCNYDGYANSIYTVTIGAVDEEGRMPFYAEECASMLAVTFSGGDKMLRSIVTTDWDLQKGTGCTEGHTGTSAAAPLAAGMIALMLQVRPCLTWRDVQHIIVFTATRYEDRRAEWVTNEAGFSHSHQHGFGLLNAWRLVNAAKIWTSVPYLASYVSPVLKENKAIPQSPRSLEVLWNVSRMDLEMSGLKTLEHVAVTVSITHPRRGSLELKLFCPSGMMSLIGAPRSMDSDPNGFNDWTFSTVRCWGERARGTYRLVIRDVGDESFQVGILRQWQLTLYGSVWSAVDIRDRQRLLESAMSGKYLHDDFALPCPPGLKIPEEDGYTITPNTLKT
Text: as §1, with “This finding prompted us to the idea of incorporating an enediyne function within a peptide sequence which may enhance the potency and selectivity of furin inhibition. To accomplish this, we designed and synthesized an enediynyl amino acid (Eda) derivative with its amino terminal protected by Fmoc (9H-fluoren-9-ylmethoxy carbonyl) group so that it can be directly used in solid phase peptide synthesis.” left out
as §2

[4] = tested on: furin processing of proPDGF-A in CHO cells; experiment: Processing of FLAG-tagged proPDGF-A in CHO cells (western blot); format: cell-based; settings: 24 h, FLAG antibody western blot
Text: (§3) The result was compared in parallel with the commercial furin inhibitor Dec (decanoyl)-RVRR-cmk (chloromethyl ketone) and the 83-mer synthetic full length prodomain protein of hfurin [49]. […] This was reflected by the strong appearance of 22 kDa proPDGF-A band which was completely absent in the control experiment done in parallel without the presence of any inhibitor. […] The effect was compared in parallel with that done with the known furin inhibitor dec-RVRR-cmk.
CHO-cells expressing FLAG-tagged PDGF-A were grown in DMEM medium as described (43) until the cells achieved ∼80% confluency (24 h), At this stage the medium was removed, cells were washed and grown in fresh buffer supplemented with furin-Eda peptide (50 µM final concentration). The media and cells were harvested after another 24 h cell growth. The collected media were concentrated ∼20-fold using centricon filtration system (Amersham Biosciences Inc, cut off MW = 3 kDa) and subjected to western blot analysis using FLAG antibody for the presence of full length proPDGF-A and its C-terminal mature form obtained following cleavage by endogenous furin present in CHO cells. […] For quantitative purpose, each sample was also analyzed for the presence of actin by immunoblot using a specific antibody.

[5] = tested on: furin-mediated processing of proVEGF-C in CHO cells; experiment: Processing of proVEGF-C in CHO cells (western blot); format: cell-based; settings: 50 µM
Text: as §3
CHO-cells expressing FLAG-labeled proVEGF-C [57] were grown in DMEM medium as described above in the absence and presence of furin-Eda peptide and the furin inhibitor Dec-RVRR-cmk (each 50 µM concentration). The presence of VEGF-C precursor and its C-terminal processed form generated by furin cleavage were assessed by western blot analysis using FLAG antibody while the level of actin (control house keeping protein) was analyzed by immunoblot for quantitation purpose.

[6] = tested on: furin-mediated processing of pro-PDGF-B in CHO cells; experiment: Processing of proPDGF-B in CHO cells (western blot); format: cell-based; settings: for Block of processing of 31 kDa pro-PDGF-B to 17 kDa mature form: 0.5 to 15 µM
Protocol: CHO-cells expressing endogenous proPDGF-B [58] were grown as described above in the absence and presence of various concentrations ranging from 0.5 to 15 µM of either furin-Eda peptide or α1-Pdx, a known furin inhibitor [50]. Western blots were performed for the presence of proPDGF-B and its processed form using PDGF-B specific antibody. In parallel samples were also analyzed for actin levels.

T2 sequence (Q04592 117-1877): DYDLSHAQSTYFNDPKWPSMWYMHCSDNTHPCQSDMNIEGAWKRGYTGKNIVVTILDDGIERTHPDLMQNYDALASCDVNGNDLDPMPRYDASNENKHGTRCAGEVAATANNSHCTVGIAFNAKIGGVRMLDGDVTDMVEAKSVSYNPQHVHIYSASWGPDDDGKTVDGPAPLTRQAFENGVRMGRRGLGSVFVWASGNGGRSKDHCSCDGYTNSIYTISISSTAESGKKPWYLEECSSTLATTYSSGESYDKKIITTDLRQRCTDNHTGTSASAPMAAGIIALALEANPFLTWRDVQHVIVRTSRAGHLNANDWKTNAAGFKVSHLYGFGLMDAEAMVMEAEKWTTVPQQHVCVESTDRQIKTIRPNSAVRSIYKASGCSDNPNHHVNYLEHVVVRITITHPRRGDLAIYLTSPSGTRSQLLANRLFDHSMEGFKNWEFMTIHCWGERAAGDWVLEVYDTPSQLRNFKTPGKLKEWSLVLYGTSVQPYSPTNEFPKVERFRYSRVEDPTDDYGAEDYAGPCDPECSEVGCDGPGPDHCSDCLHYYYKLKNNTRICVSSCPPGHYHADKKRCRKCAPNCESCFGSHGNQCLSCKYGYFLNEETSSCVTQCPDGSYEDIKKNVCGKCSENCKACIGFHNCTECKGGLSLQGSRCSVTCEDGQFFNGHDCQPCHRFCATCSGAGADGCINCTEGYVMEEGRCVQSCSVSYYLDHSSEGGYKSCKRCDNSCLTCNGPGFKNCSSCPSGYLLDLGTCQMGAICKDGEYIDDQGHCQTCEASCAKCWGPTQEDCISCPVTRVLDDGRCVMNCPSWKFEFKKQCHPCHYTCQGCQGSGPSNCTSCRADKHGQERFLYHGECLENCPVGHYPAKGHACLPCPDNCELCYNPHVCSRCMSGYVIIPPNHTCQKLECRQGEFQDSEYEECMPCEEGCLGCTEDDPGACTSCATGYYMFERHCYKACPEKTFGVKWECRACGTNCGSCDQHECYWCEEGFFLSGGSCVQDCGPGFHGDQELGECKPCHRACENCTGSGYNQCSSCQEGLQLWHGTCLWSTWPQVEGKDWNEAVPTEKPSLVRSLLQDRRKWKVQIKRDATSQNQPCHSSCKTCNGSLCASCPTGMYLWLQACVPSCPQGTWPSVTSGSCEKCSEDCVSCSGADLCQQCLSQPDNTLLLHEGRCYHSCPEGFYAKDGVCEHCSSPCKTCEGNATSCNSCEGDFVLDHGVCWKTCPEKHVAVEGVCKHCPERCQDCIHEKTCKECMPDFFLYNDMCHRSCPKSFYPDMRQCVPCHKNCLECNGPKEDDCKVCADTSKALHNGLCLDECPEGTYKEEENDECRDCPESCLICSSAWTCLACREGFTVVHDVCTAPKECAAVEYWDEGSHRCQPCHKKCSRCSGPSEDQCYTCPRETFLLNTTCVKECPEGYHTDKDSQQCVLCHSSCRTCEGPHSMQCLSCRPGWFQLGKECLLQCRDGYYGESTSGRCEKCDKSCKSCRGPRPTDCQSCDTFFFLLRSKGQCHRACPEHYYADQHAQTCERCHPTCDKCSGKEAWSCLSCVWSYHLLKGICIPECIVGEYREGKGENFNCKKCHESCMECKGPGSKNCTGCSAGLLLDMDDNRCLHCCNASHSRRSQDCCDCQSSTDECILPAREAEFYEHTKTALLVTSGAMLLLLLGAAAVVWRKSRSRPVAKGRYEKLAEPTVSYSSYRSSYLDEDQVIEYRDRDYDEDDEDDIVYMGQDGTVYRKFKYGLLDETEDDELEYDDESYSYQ
T1 sequence (P09958 108-715 limits assumed): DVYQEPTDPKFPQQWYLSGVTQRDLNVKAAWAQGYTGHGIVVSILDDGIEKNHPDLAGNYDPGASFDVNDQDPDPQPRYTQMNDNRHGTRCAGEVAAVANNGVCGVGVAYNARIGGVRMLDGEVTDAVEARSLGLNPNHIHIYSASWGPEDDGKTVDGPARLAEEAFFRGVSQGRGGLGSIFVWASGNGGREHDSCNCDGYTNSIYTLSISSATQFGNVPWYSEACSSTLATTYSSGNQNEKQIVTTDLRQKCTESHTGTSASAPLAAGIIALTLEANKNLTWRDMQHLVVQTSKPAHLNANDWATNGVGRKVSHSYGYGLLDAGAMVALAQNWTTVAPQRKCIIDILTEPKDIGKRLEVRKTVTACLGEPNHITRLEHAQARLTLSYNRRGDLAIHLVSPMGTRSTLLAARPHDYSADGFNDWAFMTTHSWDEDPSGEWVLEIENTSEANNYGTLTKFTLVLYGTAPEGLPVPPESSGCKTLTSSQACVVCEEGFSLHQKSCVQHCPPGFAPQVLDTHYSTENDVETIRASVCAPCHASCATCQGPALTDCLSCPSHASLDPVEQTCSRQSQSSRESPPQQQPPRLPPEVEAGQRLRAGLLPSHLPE

## C1#Cc2ccccc2C#CCN(Cc2ccccc2)CCN(Cc2ccccc2)C1 [AB-2]
[1]
  IC50: 10.5 µM
[2]; IC50 for inhibition of PC5, Boc-RVRR-MCA 50 µM final concentration
  IC50: 34 µM and 34.5 µM
[3]
  IC50: 8.5 µM

## Cc1ccc(S(=O)(=O)N2CC#Cc3ccccc3C#CCN(S(=O)(=O)c3ccc(C)cc3)c3cccc2c3)cc1 [AB-3]
[1]; read-out: IC50 for inhibition of furin, Boc-RVRR-MCA 50 µM final concentration
  IC50: 14.2 ± 1.8 µM
[2]; read-out: IC50 for inhibition of PC5, Boc-RVRR-MCA 50 µM final concentration
  IC50: 17.2 ± 3.4 µM
[3]; Boc-RVRR-MCA 50 µM
  Effect on PC7 protease activity: minor protease activating effect

## C1#Cc2ccccc2C#CCNc2cccc(c2)NC1 [AB-4]
[1]
  inhibition at 100 µM: 10%

## C1#Cc2ccccc2C#CCNc2cccc(n2)NC1 [AB-5]
[1]
  inhibition at 100 µM: 12%

## C1#Cc2ccccc2C#CCN(Cc2ccccc2)CCN(Cc2ccccc2)CC#Cc2ccccc2C#CCN(Cc2ccccc2)CCN(Cc2ccccc2)C1 [AB-6]
[1]
  IC50: 192 ± 6.7 µM

## CC(C)[C@H](NC(=O)[C@H](CCC(N)=O)NC(=O)[C@@H](N)CCC(N)=O)C(=O)N[C@@H](C)C(=O)N[C@@H](CCCCN)C(=O)N[C@@H](CCCNC(=N)N)C(=O)N[C@@H](CCCNC(=N)N)C(=O)N[C@H](C(=O)N[C@@H](CCCCN)C(=O)N[C@@H](CCCNC(=N)N)C(=O)NCCC#Cc1ccccc1C#CCCC(=O)N[C@@H](CC(=O)O)C(=O)N[C@H](C(=O)N[C@@H](Cc1ccc(O)cc1)C(=O)N[C@@H](CCC(N)=O)C(=O)N[C@@H](CCC(=O)O)C(N)=O)C(C)C)[C@@H](C)O [furin-Eda-peptide (II)]
[4]; 50 µM
  Block of cleavage of 22 kDa pro-PDGF-A to 14 kDa mature PDGF-A: block efficiently
[5]
  Block of cleavage of 50 kDa proVEGF-C to 28 kDa mature VEGF-C: block significantly
[6]
  Effect on formation of 22 kDa intermediate form of PDGF-B: neither inhibitors displayed any effect
  Block of processing of 31 kDa pro-PDGF-B to 17 kDa mature form: block furin-mediated processing

## Dec (decanoyl)-RVRR-cmk (chloromethyl ketone) [Dec-RVRR-cmk, reference compound]
[4]; 10 and 50 µM
  Block of cleavage of 22 kDa pro-PDGF-A to 14 kDa mature PDGF-A: block efficiently
[5]
  Block of cleavage of 50 kDa proVEGF-C to 28 kDa mature VEGF-C: block significantly

## α1-Pdx: bioengineered protein, known potent inhibitor of furin
[6]
  Effect on formation of 22 kDa intermediate form of PDGF-B: neither inhibitors displayed any effect
  Block of processing of 31 kDa pro-PDGF-B to 17 kDa mature form: highly comparable
